Measured values from patent US10675251B2, “Particles containing branched polymers” (The University of Liverpool, priority 2014, dated 2020).

Assay: Drug loading (encapsulation) in co-nanoprecipitated particles
Format: physicochemical
Description: During a typical nanoparticle preparation, 5.5 mL of a 1 mg/mL acetone solution of efavirenz, ritonavir or lopinavir is added to a vial and left to evaporate overnight. To this vial 25 mg of the branched polymer and 25 mg of the polymer diblock were added and dissolved in 10 mL of acetone during 6-8 hours to ensure complete solubilisation. 1 mL of the 5 mg/mL solution of polymers and dissolved drug was added to 5 mL of stirring distilled water (500 rpm) and left for 24 hours for complete acetone evaporation (final concentration of polymer 1 mg/mL). During a typical nanoparticle preparation 5.5 mL of a 1 mg/mL acetone solution of irinotecan was added to a vial and left to evaporate overnight. To this vial, 25 mg of the branched polymer and 25 mg of the polymer diblock were added and dissolved in 10 mL of acetone during 6-8 hours to ensure complete solubilisation. 1 mL of the 5 mg/mL solution of polymers and dissolved drug was added to 5 mL of stirring water (500 rpm) and left for 24 hours for complete acetone evaporation.

Structure (SMILES)	drug loading achieved
CCc1c2c(nc3ccc(OC(=O)N4CCC(N5CCCCC5)CC4)cc13)-c1cc3c(c(=O)n1C2)COC(=O)[C@]3(O)CC [Irinotecan]	effectively encapsulated at 10 wt % or 15 wt %
O=C1Nc2ccc(Cl)cc2[C@@](C#CC2CC2)(C(F)(F)F)O1 [Efavirenz]	25 wt %
